The subject of one data set is Phakopsora pachyrhizi. The data set is described as follows: In vivo Phakopsora test (soybeans) / preventive. Particulars: 10 ppm of active ingredient, evaluated 7 days after inoculation.
The subject of data set [1] is Fusarium nivale (var. majus). The data set can be described thus: Fusarium nivale (var. majus) test (wheat) / preventive. Type of data set: in vivo. The note with it: 500 ppm of active ingredient, evaluated 5 days after inoculation. An excerpt:
Solvent: 49 parts by weight of N,N-dimethylacetamide Emulsifier: 1 part by weight of alkylaryl polyglycol ether […] To test for preventive activity, young plants are sprayed with the preparation of active compound or active compound combination at the stated rate of application. After the spray coating has been dried, the plants are slightly injured by using a sandblast and afterwards they are sprayed with a conidia suspension of Fusarium nivale (var. majus). The plants are placed in the greenhouse under a translucent incubation cabinet at a temperature of approximately 10° C. and a relative atmospheric humidity of approximately 100%.

The nature of data set [2]: logP by HPLC on reversed phase columns (EEC directive 79/831 Annex V.A8). Type of data set: physicochemical. Particulars: method [a]: LC-MS at pH 2.7, 0.1% formic acid in water / acetonitrile. How it is done: Measurement of log P values was performed according EEC directive 79/831 Annex V.A8 by HPLC (High Performance Liquid Chromatography) on reversed phase columns with the following methods: ^[a] Measurement of LC-MS was done at pH 2.7 with 0.1% formic acid in water and with acetonitrile (contains 0.1% formic acid) as eluent with a linear gradient from 10% acetonitrile to 95% acetonitrile. ^[b] Measurement with LC-MS was done at pH 7.8 with 0.001 molar ammonium hydrogen carbonate solution in water as eluent with a linear gradient from 10% acetonitrile to 95% acetonitrile.

The next data set deals with Alternaria brassicae. The data set is described as follows: In vivo preventive test on Alternaria brassicae (leaf spot on radish). The note with it: 500 ppm, radish plants, preventive spray, grading 6 days after contamination. As for the experimental part:
Radish plants (“Pernod Clair” variety), sown in starter cups on a 50/50 peat soil-pozzolana substrate and grown at 17° C., are treated at the cotyledon stage by spraying with the active ingredient prepared as described above. Plants, used as controls, are treated with the mixture of acetone/tween/DMSO/water not containing the active material. After 24 hours, the plants are contaminated by spraying the cotyledons with an aqueous suspension of Alternaria brassicae spores (50 000 spores per ml). The spores are collected from a 15-day-old culture. The contaminated radish plants are incubated at 20° C. and at 100% relative humidity. Grading (% of efficacy) is carried out 6 days after the contamination, in comparison with the control plants.

For another data set, the system named is Puccinia recondita. The data set can be described thus: In vivo preventive test on Puccinia recondita (brown rust on wheat). The note with it: 500 ppm, wheat plants, preventive spray, grading 12 days after contamination. As for the experimental part: (§1) The active ingredients tested are prepared by homogenization in a mixture of acetone/tween/DMSO, and then diluted with water to obtain the desired active material concentration.
Wheat plants (“Scipion” variety), sown in starter cups on a 50/50 peat soil-pozzolana substrate and grown at 22° C., are treated at the 1-leaf stage (10 cm height) by spraying with the active ingredient prepared as described above. Plants, used as controls, are treated with the mixture of acetone/tween/DMSO/water not containing the active material.
After 24 hours, the plants are contaminated by spraying the leaves with an aqueous suspension of Puccinia […] spores (100 000 spores per ml). The spores are collected from an infected plant and are suspended in water containing 2.5 ml/l of Tween 80 at 10%. The contaminated wheat plants are incubated for 24 hours at 20° C. and at 100% relative humidity, and then for 10 days at 20° C. and at 70-80% relative humidity.
(§2) Grading (% of efficacy) is carried out 12 days after the contamination, in comparison with the control plants.

Another data set deals with Septoria tritici. The data set is described as follows: In vivo preventive test on Septoria tritici (leaf spot on wheat). The note with it: 500 ppm, wheat plants, preventive spray, grading 24 days after contamination. How it is done: Wheat plants (“Scipion” variety), sown in starter cups on a 50/50 peat soil-pozzolana substrate and grown at 22° C., are treated at the 1-leaf stage (10 cm height) by spraying with the active ingredient prepared as described above. Plants, used as controls, are treated with the mixture of acetone/tween/DMSO/water not containing the active material. After 24 hours, the plants are contaminated by spraying the leaves with an aqueous suspension of cryopreserved Septoria tritici spores (500 000 spores per ml). The contaminated wheat plants are incubated for 72 hours at 18° C. and at 100% relative humidity, and then for 21 days at 90% relative humidity. Grading (% of efficacy) is carried out 24 days after the contamination, in comparison with the control plants.

The test system of a further data set is Sphaerotheca fuliginea. The data set can be described thus: In vivo preventive test on Sphaerotheca fuliginea (powdery mildew on cucurbits). The note with it: 500 ppm, gherkin plants, preventive spray, grading 12 days after contamination. How it is done: (§3) The active ingredients tested are prepared by homogenization in a mixture of acetone/tween/DMSO and then diluted with water to obtain the desired active material concentration.
(§4) Gherkin plants (“Vert petit de Paris” variety), sown in starter cups on a 50/50 peat soil-pozzolana substrate and grown at 24° C., are treated at the Z11 cotyledon stage by spraying with the active ingredient prepared as described above. Plants, used as controls, are treated with the mixture of acetone/tween/DMSO/water not containing the active material.
After 24 hours, the plants are contaminated by spraying the cotyledons with an aqueous suspension of Sphaerotheca fuliginea spores (100 000 spores per ml). The spores are collected from infected plants. The contaminated gherkin plants are incubated at about 20° C. and at 70-80% relative humidity.
as §2

The subject of a further data set is Uromyces appendiculatus. The data set can be described thus: In vivo preventive test on Uromyces appendiculatus (bean rust). Particulars: 500 ppm, bean plants, preventive spray, grading 11 days after contamination. As for the experimental part:
as §1
Bean plants (“Saxa” variety), sown in starter cups on a 50/50 peat soil-pozzolana substrate and grown at 24° C., are treated at the 2-leaf stage (9 cm height) by spraying with the active ingredient prepared as described above. Plants, used as controls, are treated with the mixture of acetone/tween/DMSO/water not containing the active material.
After 24 hours, the plants are contaminated by spraying the leaves with an aqueous suspension of Uromyces appendiculatus spores (150 000 spores per ml). The spores are collected from infected plants and are suspended in water containing 2.5 ml/l of Tween 80 at 10%. The contaminated bean plants are incubated for 24 hours at 20° C. and at 100% relative humidity, and then for 10 days at 20° C. and at 70-80% relative humidity.
Grading (% of efficacy) is carried out 11 days after the contamination, in comparison with the control plants.

In a further data set the test system is Botrytis cinerea. The data set can be described thus: In vivo preventive test on Botrytis cinerea (grey mould), gherkin plants. The note with it: 500 ppm, preventive spray, grading 4 to 5 days after contamination. How it is done: as §3, §4
After 24 hours, the plants are contaminated by spraying the cotyledons with an aqueous suspension of cryopreserved Botrytis cinerea spores (50 000 spores per ml). The spores are suspended in a nutrient solution composed of 10 g/L of PDB, 50 g/L of D-Fructose, 2 g/L of NH4NO3 and 1 g/L of KH2PO4. The contaminated gherkin plants are incubated at 17° C. and at 90% relative humidity.
Grading (% of efficacy) is carried out 4 to 5 days after the contamination, in comparison with the control plants.

Another data set concerns Pyrenophora teres. The data set can be described thus: In vivo preventive test on Pyrenophora teres (net blotch on barley). The note with it: 500 ppm, barley plants, preventive spray, grading 14 days after contamination. How it is done: Barley plants (“Plaisant” variety), sown in starter cups on a 50/50 peat soil-pozzolana substrate and grown at 22° C., are treated at the 1-leaf stage (10 cm height) by spraying with the active ingredient prepared as described above. Plants, used as controls, are treated with the mixture of acetone/tween/DMSO/water not containing the active material. After 24 hours, the plants are contaminated by spraying the leaves with an aqueous suspension of Pyrenophora teres spores (12 000 spores per ml). The spores are collected from a 12-day-old culture. The contaminated barley plants are incubated for 48 hours at 20° C. and at 100% relative humidity, and then for 12 days at 20° C. at 70-80% relative humidity. Grading (% of efficacy) is carried out 14 days after the contamination, in comparison with the control plants.

As for `Cn1nc(C(F)F)c(C(=O)Nc2cccc3c2C(C)(C)OC3(C)C)c1Cl` [Example 2], the Eff. % with Phakopsora pachyrhizi came out at 96%; in data set [1], 86%.

For the compound `CCC1(CC)OC(C(C)C)c2c(NC(=O)c3c(C(F)F)nn(C)c3F)cccc21` (stereo not drawn) [Example 8], in [2], the logP was 4.06[a]. The Eff. % turned out to be 83% in the data set with Alternaria brassicae; 98% in the data set on Puccinia recondita; 86% in the data set with Septoria tritici; 100% with Sphaerotheca fuliginea; 100% in the data set with Uromyces appendiculatus.

On to `CCC1(CC)OC(C)c2c(NC(=O)c3c(C(F)F)nn(C)c3Cl)cccc21` (stereo not drawn) [Example 9], for which the logP in data set [2] is 3.48[a]. Moreover, the Eff. % with Puccinia recondita amounted to 100%; in the data set on Septoria tritici, 93%; in the data set on Sphaerotheca fuliginea, 94%; in the data set on Uromyces appendiculatus, 100%.

Turning to `CCC1(CC)OC(C)c2c(NC(=O)c3cn(C)nc3C(F)F)cccc21` (stereo not drawn) [Example 6], in [2], the logP was 2.9[a]. Moreover, the Eff. % in the data set on Botrytis cinerea amounted to 100%; in the data set on Pyrenophora teres, 92%; in the data set on Septoria tritici it was 100%; in the data set with Sphaerotheca fuliginea, 100%; in the data set on Uromyces appendiculatus, 100%.

`CCC1(CC)OC(C)c2c(NC(=O)c3c(C(F)F)nn(C)c3F)cccc21` (stereo not drawn) [Example 13]: the logP in [2] is 3.27[a]. The Eff. % in the data set with Botrytis cinerea is given as 100%; with Pyrenophora teres, 83%; with Puccinia recondita, 100%; with Septoria tritici it was 79%; with Sphaerotheca fuliginea, 100%; in the data set with Uromyces appendiculatus it was 100%.

Take `Cn1nc(C(F)F)c(C(=O)Nc2cccc3c2C(C)(C)OC3(C)C)c1F` [Example 1]: the Eff. % in data set [1] is 92%.

For the compound `CCC1(CC)OC(C(C)C)c2c(NC(=O)c3cn(C)nc3C(F)F)cccc21` (stereo not drawn) [Example 12], the logP in [2] is 3.63[a]. Also, the Eff. % in the data set on Alternaria brassicae came out at 78%; in the data set with Puccinia recondita, 94%; in the data set on Septoria tritici, 86%; with Sphaerotheca fuliginea it was 100%; in the data set with Uromyces appendiculatus, 100%.

The record behind these values is patent US9375006B2, “5- halogenopyrazole benzofuranyl carboxamides” (BAYER CROPSCIENCE AG, priority 2012, dated 2016).
